Laboratory results published in ChEMBL document CHEMBL4622858, “Synthesis of morpholine derivatives using the Castagnoli-Cushman reaction as BACE1 inhibitors: Unexpected binding activity of cyclic thioamides” (Bioorg Med Chem Lett, 2020).
pIC50: −log10 of the molar value.

biological target: T1, Beta-secretase 1 (Homo sapiens, UniProt P56817); test: Inhibition of human BACE1 using HiLyte Fluo488/QXL-520 peptide substrate at 10 uM by fluorescence assay
T1 sequence (P56817 whole entry): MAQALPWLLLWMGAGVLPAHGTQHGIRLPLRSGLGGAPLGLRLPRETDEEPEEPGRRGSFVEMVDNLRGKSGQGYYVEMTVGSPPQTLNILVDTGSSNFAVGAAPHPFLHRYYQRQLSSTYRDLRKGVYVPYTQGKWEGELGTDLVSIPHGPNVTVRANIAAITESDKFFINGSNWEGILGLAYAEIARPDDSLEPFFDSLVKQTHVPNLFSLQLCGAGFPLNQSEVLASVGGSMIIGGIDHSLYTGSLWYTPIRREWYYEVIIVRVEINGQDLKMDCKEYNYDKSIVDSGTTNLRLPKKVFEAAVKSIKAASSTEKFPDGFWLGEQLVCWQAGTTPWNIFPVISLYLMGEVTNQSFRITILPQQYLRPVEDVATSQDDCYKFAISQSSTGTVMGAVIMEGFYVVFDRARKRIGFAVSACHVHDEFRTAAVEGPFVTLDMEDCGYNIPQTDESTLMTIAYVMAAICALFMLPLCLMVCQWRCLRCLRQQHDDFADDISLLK

SMILES	inhibition [%]
Cc1ccc([C@H]2NC(=N)CO[C@@H]2C(N)=O)cc1	14
COc1ccc([C@H]2NC(=N)CO[C@@H]2C(N)=O)cc1OC	10
COC(=O)[C@H]1OCC(=S)N[C@@H]1c1ccc(OC)cc1	40
COc1ccc([C@H]2NC(=N)CO[C@@H]2C(N)=O)cc1	27
COc1ccc([C@H]2NC(=N)CO[C@@H]2C(N)=O)cc1Br	17
COC(=O)[C@H]1OCC(=S)N[C@@H]1c1ccc(OC)c(Br)c1	26
COC(=O)[C@H]1OCC(=S)N[C@@H]1c1ccc(C)cc1	19
COC(=O)[C@H]1OCC(=S)N[C@@H]1c1ccc(OC)c(OC)c1	24

biological target: T1, Beta-secretase 1; test: Inhibition of human BACE1 using HiLyte Fluo488/QXL-520 peptide substrate by fluorescence assay

pIC50	SMILES
5.24	COC(=O)[C@H]1OCC(=S)N[C@@H]1c1ccc(OC)cc1
